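Grown in 96-well plates, cells were treated for 48 hours with each compound at five concentrations. Insufficient inhibition: endpoint recorded as highest concentration tested. GI50 marks 50% less growth. Definition used: TGI = concentration required for complete inhibition of growth.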
Legend:
Experiment in all cases: growth of human tumour cells (NCI), 48 h
SW-620 colon = test system: SW-620 colon
COLO 205 colon = test system: COLO 205 colon
KM12 colon = test system: KM12 colon
A498 renal = test system: A498 renal
SK-MEL-28 melanoma = test system: SK-MEL-28 melanoma
NCI/ADR-RES ovarian = test system: NCI/ADR-RES ovarian
SK-MEL-2 melanoma = test system: SK-MEL-2 melanoma
HCT-15 colon = test system: HCT-15 colon
U251 CNS = test system: U251 CNS
SNB-75 CNS = test system: SNB-75 CNS
OVCAR-3 ovarian = test system: OVCAR-3 ovarian
RPMI-8226 leukemia = test system: RPMI-8226 leukemia
HOP-62 NSCLC = test system: HOP-62 NSCLC
NCI-H23 lung = test system: NCI-H23 lung
PC-3 prostate = test system: PC-3 prostate
SN12C renal = test system: SN12C renal
SF-295 CNS = test system: SF-295 CNS
SR leukemia = test system: SR leukemia
OVCAR-4 ovarian = test system: OVCAR-4 ovarian
HT29 colon = test system: HT29 colon
OVCAR-8 ovarian = test system: OVCAR-8 ovarian
MDA-MB-435 = test system: MDA-MB-435
HCC-2998 colon = test system: HCC-2998 colon
RXF 393 renal = test system: RXF 393 renal
786-0 renal = test system: 786-0 renal
UO-31 renal = test system: UO-31 renal
M14 melanoma = test system: M14 melanoma
SK-MEL-5 melanoma = test system: SK-MEL-5 melanoma
DU-145 prostate = test system: DU-145 prostate
SNB-19 CNS = test system: SNB-19 CNS
NCI-H522 lung = test system: NCI-H522 lung
K-562 leukemia = test system: K-562 leukemia
NCI-H226 lung = test system: NCI-H226 lung
BT-549 breast = test system: BT-549 breast
HS 578T breast = test system: HS 578T breast
EKVX NSCLC = test system: EKVX NSCLC
CCRF-CEM leukemia = test system: CCRF-CEM leukemia
HCT-116 colon = test system: HCT-116 colon
MOLT-4 leukemia = test system: MOLT-4 leukemia
LOX IMVI melanoma = test system: LOX IMVI melanoma
UACC-62 melanoma = test system: UACC-62 melanoma
TK-10 renal = test system: TK-10 renal
OVCAR-5 ovarian = test system: OVCAR-5 ovarian
IGROV1 ovarian = test system: IGROV1 ovarian
HL-60(TB) leukemia = test system: HL-60(TB) leukemia
ACHN renal = test system: ACHN renal
UACC-257 melanoma = test system: UACC-257 melanoma
MCF7 breast = test system: MCF7 breast
SK-OV-3 ovarian = test system: SK-OV-3 ovarian
MDA-MB-231 breast = test system: MDA-MB-231 breast
HOP-92 NSCLC = test system: HOP-92 NSCLC
T-47D breast = test system: T-47D breast
SF-268 CNS = test system: SF-268 CNS
NCI-H460 lung = test system: NCI-H460 lung
MALME-3M melanoma = test system: MALME-3M melanoma
SF-539 CNS = test system: SF-539 CNS
A549 NSCLC = test system: A549 NSCLC

With `Cc1cc2c(C(C)C)c(O)c(O)c(/C=N/O)c2c(O)c1-c1c(C)cc2c(C(C)C)c(O)c(O)c(/C=N/O)c2c1O` the GI50 (SW-620 colon) was 2.94 µM, the TGI (SW-620 colon) was 12.3 µM and the GI50 (COLO 205 colon) was 2.88 µM. For the same compound, the TGI (COLO 205 colon) was 9.72 µM, the GI50 (KM12 colon) was 2.36 µM and the TGI (KM12 colon) was 8.52 µM. It also gave a GI50 (A498 renal) of 2.54 µM, a TGI (A498 renal) of 10.4 µM and a GI50 (SK-MEL-28 melanoma) of 1.84 µM. The TGI (SK-MEL-28 melanoma) was 6.8 µM, the GI50 (NCI/ADR-RES ovarian) was 3.4 µM and the TGI (NCI/ADR-RES ovarian) was 15.1 µM. It also gave a GI50 (SK-MEL-2 melanoma) of 3.47 µM, a TGI (SK-MEL-2 melanoma) of 13.8 µM and a GI50 (HCT-15 colon) of 2.35 µM. The TGI (HCT-15 colon) was 13.4 µM, the GI50 (U251 CNS) was 1.89 µM and the TGI (U251 CNS) was 11.8 µM. It also gave a GI50 (SNB-75 CNS) of 3.57 µM, a TGI (SNB-75 CNS) of 17.4 µM and a GI50 (OVCAR-3 ovarian) of 1.69 µM. It also gave a TGI (OVCAR-3 ovarian) of 10.1 µM, a GI50 (RPMI-8226 leukemia) of 2.44 µM and a TGI (RPMI-8226 leukemia) of 15.4 µM. The GI50 (HOP-62 NSCLC) was 1.95 µM, the TGI (HOP-62 NSCLC) was 11.4 µM and the GI50 (NCI-H23 lung) was 1.92 µM. For the same compound, the TGI (NCI-H23 lung) was 5.74 µM, the GI50 (PC-3 prostate) was 2.8 µM and the TGI (PC-3 prostate) was 13.5 µM. It also gave a GI50 (SN12C renal) of 4.34 µM, a TGI (SN12C renal) of 18.5 µM and a GI50 (SF-295 CNS) of 2.61 µM. For the same compound, the TGI (SF-295 CNS) was 13.3 µM, the GI50 (SR leukemia) was 3.22 µM and the TGI (SR leukemia) was 13.5 µM. For the same compound, the GI50 (OVCAR-4 ovarian) was 1.33 µM, the TGI (OVCAR-4 ovarian) was 9.69 µM and the GI50 (HT29 colon) was 3.19 µM. It also gave a TGI (HT29 colon) of 12.5 µM, a GI50 (OVCAR-8 ovarian) of 2.94 µM and a TGI (OVCAR-8 ovarian) of 13.2 µM. It also gave a GI50 (MDA-MB-435) of 2.78 µM, a TGI (MDA-MB-435) of 12.1 µM and a GI50 (HCC-2998 colon) of 2.29 µM. It also gave a TGI (HCC-2998 colon) of 6.88 µM, a GI50 (RXF 393 renal) of 1.49 µM and a TGI (RXF 393 renal) of 6.36 µM. For the same compound, the GI50 (786-0 renal) was 3.22 µM, the TGI (786-0 renal) was 13.3 µM and the GI50 (UO-31 renal) was 2.24 µM. It also gave a TGI (UO-31 renal) of 12.6 µM, a GI50 (M14 melanoma) of 2.46 µM and a TGI (M14 melanoma) of 10.1 µM. It also gave a GI50 (SK-MEL-5 melanoma) of 1.43 µM, a TGI (SK-MEL-5 melanoma) of 3.82 µM and a GI50 (DU-145 prostate) of 2.77 µM. It also gave a TGI (DU-145 prostate) of 13.7 µM, a GI50 (SNB-19 CNS) of 3.32 µM and a TGI (SNB-19 CNS) of 23.5 µM. The GI50 (NCI-H522 lung) was 1.74 µM, the TGI (NCI-H522 lung) was 5.47 µM and the GI50 (K-562 leukemia) was 2.07 µM. It also gave a TGI (K-562 leukemia) of 5.96 µM, a GI50 (NCI-H226 lung) of 2.87 µM and a TGI (NCI-H226 lung) of 9.72 µM. For the same compound, the GI50 (BT-549 breast) was 2.42 µM, the TGI (BT-549 breast) was 13.8 µM and the GI50 (HS 578T breast) was 2.03 µM. It also gave a TGI (HS 578T breast) of 27.4 µM, a GI50 (EKVX NSCLC) of 1.94 µM and a TGI (EKVX NSCLC) of 11.4 µM. It also gave a GI50 (CCRF-CEM leukemia) of 3.6 µM, a TGI (CCRF-CEM leukemia) of 14.7 µM and a GI50 (HCT-116 colon) of 2.41 µM. The TGI (HCT-116 colon) was 12 µM, the GI50 (MOLT-4 leukemia) was 2.23 µM and the TGI (MOLT-4 leukemia) was 7.64 µM. The GI50 (LOX IMVI melanoma) was 1.53 µM, the TGI (LOX IMVI melanoma) was 3.47 µM and the GI50 (UACC-62 melanoma) was 2.15 µM. The TGI (UACC-62 melanoma) was 5.23 µM, the GI50 (TK-10 renal) was 3.13 µM and the TGI (TK-10 renal) was 13.7 µM. For the same compound, the GI50 (OVCAR-5 ovarian) was 3.08 µM, the TGI (OVCAR-5 ovarian) was 12.9 µM and the GI50 (IGROV1 ovarian) was 3.54 µM. For the same compound, the TGI (IGROV1 ovarian) was 16 µM, the GI50 (HL-60(TB) leukemia) was 2.61 µM and the TGI (HL-60(TB) leukemia) was 10.6 µM. For the same compound, the GI50 (ACHN renal) was 2.04 µM, the TGI (ACHN renal) was 7.45 µM and the GI50 (UACC-257 melanoma) was 2.97 µM. For the same compound, the TGI (UACC-257 melanoma) was 8.76 µM, the GI50 (MCF7 breast) was 2.52 µM and the TGI (MCF7 breast) was 12.2 µM. For the same compound, the GI50 (SK-OV-3 ovarian) was 3.6 µM, the TGI (SK-OV-3 ovarian) was 11.9 µM and the GI50 (MDA-MB-231 breast) was 3.5 µM. It also gave a TGI (MDA-MB-231 breast) of 20.2 µM, a GI50 (HOP-92 NSCLC) of 2.89 µM and a TGI (HOP-92 NSCLC) of 13.5 µM. For the same compound, the GI50 (T-47D breast) was 2 µM, the TGI (T-47D breast) was 8.42 µM and the GI50 (SF-268 CNS) was 1.54 µM. The TGI (SF-268 CNS) was 11.4 µM, the GI50 (NCI-H460 lung) was 2.19 µM and the TGI (NCI-H460 lung) was 6.72 µM. For the same compound, the GI50 (MALME-3M melanoma) was 3.91 µM, the TGI (MALME-3M melanoma) was 20.4 µM and the GI50 (SF-539 CNS) was 1.85 µM. The TGI (SF-539 CNS) was 5.37 µM, the GI50 (A549 NSCLC) was 2.69 µM and the TGI (A549 NSCLC) was 12.1 µM.
